Key:
[1] = system: BAF3 cells expressing MER; assay: BAF3-MER cell proliferation assay (CellTiter-Glo); type: cell-based; settings: Mus musculus, 48 hours, 2% FBS
Excerpt: To evaluate the cellular potency and selectivity within the TAM receptor family, mouse BAF3 cell lines with stable expression of AXL, MER, or TYRO3 were generated.
The cytoplasmic domain of AXL, MER, or TYRO3 fused with dimerization sequence and HA tag was cloned into a pMSCV (murine stem cell virus) vector with a puromycin-resistance marker to generate three constructs individually by electroporation into BAF3 cells. Single clones that were IL-3-independent and puromycin-resistant were selected and characterized. To evaluate effects on BAF3 cell proliferation, 1000 cells/well of BAF3, BAF3-AXL, BAF3 MER, or BAF3-TYRO3 cells were treated in the presence or absence of Compound 1 at various concentrations (10 concentration points with a three-fold dilution factor from the highest concentration of 10 μM) diluted in RPMI-1640 with 2% FBS for 48 hours in a 384-well plate. Cell viability was measured by ATP assay (CellTiter-Glo Assay, Promega, Madison, Wis.) according to the manufacturer's procedure. The data were converted to percent inhibition relative to DMSO control, and IC50 curves were fitted using GraphPad Prism software.

[2] = system: macrophage-mediated suppression of T-cell proliferation; assay: Macrophage suppression of T-cell proliferation assay; type: cell-based, human
Experimental: To examine the functional activity of Compound 1, the effects on macrophage-mediated suppression of T-cell proliferation were evaluated.
Human PBMCs were isolated from the peripheral blood of healthy donors by density gradient centrifugation on Ficoll-Hypaque (GE Healthcare, Chicago, Ill.; #17-1440-02) followed by purification with anti-CD14 Microbeads (Miltenyi Biotec; #130-050-201). Isolated CD14^+ monocytes/macrophages were incubated with 100 ng/mL M-CSF (R&D Systems; #216-MC) and 50 ng/mL TGFβ1 (R&D Systems; #240-B) at 37° C. for 6 days; 100 μL/well of CD14^+ macrophages were seeded at 0.5×10^6 cells/mL in a 96-well round-bottomed culture plate (Costar; #3799) and treated with Compound 1 overnight at 37° C. CD4^+CD25^− effector T (Teff) cells were isolated using the Dynabeads regulatory CD4^+CD25^+ T-cell kit (Life Technologies; #11363D) and the Teff cells were labeled with carboxyfluorescein succinimidyl ester (CFSE) using the CellTrace CFSE Cell Proliferation kit (ThermoFisher Scientific; #C34554). […] Teff cells were analyzed by a flow cytometer (BD LSRFortessa X-20, BD Biosciences, San Jose, Calif.) and the cell-free supernatant was tested in the Luminex assay (Millipore; #HCYTOMAG-60K_38plex) to measure the concentrations of different cytokines and chemokines.

4T1 tumor = assay: 4T1 syngeneic tumor model; type: in vivo, BALB/c mice
Experimental: To test potential immunomodulatory activity of Compound 1 in vivo, antitumor efficacy studies were performed in syngeneic tumor models.
MBT-2 cells were obtained from the Japanese Collection of Research Bioresources Cell Bank and were maintained in DMEM supplemented with 10% FBS. MC38 cells were obtained from the NCI. 4T1 cells were obtained from ATCC and maintained in RPMI media supplemented with 10% FBS. For MBT-2 experiments, 5×10^5 MBT-2 cells were inoculated subcutaneously into the right hind flank of 6- to 8-week-old C3H mice or athymic nude mice (Charles River Laboratories, Wilmington, Mass.). For MC38 studies, 12-week old female C57BL/6 mice were inoculated with brei of MC38 tumors (in-vivo passage 6) into the right hind flank. For 4T1 studies, 7.5×10^5 4 T1 cells were inoculated subcutaneously into the right hind flank of 6- to 8-week-old female BALB/c mice or athymic nude mice (Charles River Laboratories). […] Mice were monitored for tumor growth and overt tolerability over the course of the experiment. […] Tumor volume was calculated using the formula (L×W^2)/2, where L and W refer to the length and width dimensions, respectively. Tumor growth inhibition (TGI) was calculated using the formula (1−(VT/VC))×100, where VT is the tumor volume of the treatment group on the last day of treatment, and VC is the tumor volume of the control group on the last day of treatment. […]

CC(C)C(=O)N1CCC(c2cc(-c3ccc(NC(=O)c4cn(C(C)C)c(=O)n(-c5ccccn5)c4=O)cc3)c3c(N)ncnn23)CC1 [Compound 1, N-(4-(4-Amino-7-(1-isobutyrylpiperidin-4-yl)pyrrolo[1,2-f][1,2,4]triazin-5-yl)phenyl)-1-isopropyl-2,4-dioxo-3-(pyridin-2-yl)-1,2,3,4-tetrahydropyrimidine-5-carboxamide]
GI50 [1]: 14 ± 4.9 nM | effect on macrophage-mediated suppression of T-cell proliferation ([2]; FIG. 5A): partially reversed macrophage-mediated suppression of T-cell proliferation | IFN-γ production ([2]; macrophage/T-cell co-culture supernatant, FIG. 5B): increase in IFN-γ production | antitumor efficacy (tumor volume) (4T1 tumor; 4T1 in BALB/c mice, oral BID, FIG. 7B): dose-dependent efficacy | ratio of M1-like to M2-like macrophages (4T1 tumor; 4T1 tumors, flow cytometry, FIG. 7D): increased the ratio of M1-like to M2-like macrophages in a dose-dependent manner

Reference: patent US12214036B2, “Combination therapy comprising AXL/MER and PD-1/PD-L1 inhibitors” (Incyte Corporation, priority 2020, dated 2025)
